Test results from PubChem BioAssay AID256 (DTP/NCI, 2004).
Values joined by “and” are separate entries in the source; they are usually repeats but may differ in a detail not shown here. Equal entries are not always repeated. Inconclusive results and toxic doses are left out. How the source made its calls: active means survival T/C of 150% or more; inactive means T/C below 125% in these data.

Test system: CD2F1 mice, L1210 leukemia ip, survival T/C
Experiment: NCI In Vivo Anticancer Drug Screen. Data for tumor model L1210 Leukemia (intraperitoneal) in CD2F1 (CDF1) mice
Settings: endpoint: mean survival time, higher = longer survival
In short: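 Implant tumor; dose compound or vehicle; measure endpoint in both groups; report treated divided by control.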

[1] = dose: 100.0 mg/kg/injection, schedule: Q01DX009 (ip), vehicle: saline with Tween-80
[2] = dose: 100.0 mg/kg/injection, schedule: Q04DX003 (ip), vehicle: saline with Tween-80
[3] = dose: 200.0 mg/kg/injection, schedule: Q01DX009 (ip), vehicle: saline with Tween-80
[4] = dose: 200.0 mg/kg/injection, schedule: Q04DX003 (ip), vehicle: saline with Tween-80
[5] = dose: 400.0 mg/kg/injection, schedule: Q01DX009 (ip), vehicle: saline with Tween-80
[6] = dose: 400.0 mg/kg/injection, schedule: Q04DX003 (ip), vehicle: saline with Tween-80
[7] = dose: 100.0 mg/kg/injection, schedule: Q01DX009 (ip), vehicle: Klucel (hydroxypropylcellulose) (HPC)
[8] = dose: 200.0 mg/kg/injection, schedule: Q01DX009 (ip), vehicle: Klucel (hydroxypropylcellulose) (HPC)
[9] = dose: 75.0 mg/kg/injection, schedule: Q01DX001 (ip), vehicle: saline
[10] = dose: 150.0 mg/kg/injection, schedule: Q01DX001 (ip), vehicle: saline
[11] = dose: 200.0 mg/kg/injection, schedule: Q04DX002 (ip), vehicle: saline with Tween-80
[12] = dose: 400.0 mg/kg/injection, schedule: Q04DX002 (ip), vehicle: saline with Tween-80
[13] = dose: 100.0 mg/kg/injection, schedule: Q04DX003 (ip), vehicle: Klucel (hydroxypropylcellulose) (HPC)
[14] = dose: 200.0 mg/kg/injection, schedule: Q04DX003 (ip), vehicle: Klucel (hydroxypropylcellulose) (HPC)
[15] = dose: 400.0 mg/kg/injection, schedule: Q04DX003 (ip), vehicle: Klucel (hydroxypropylcellulose) (HPC)
[16] = dose: 100.0 mg/kg/injection, schedule: Q01DX001 (ip), vehicle: saline with Tween-80
[17] = dose: 200.0 mg/kg/injection, schedule: Q01DX001 (ip), vehicle: saline with Tween-80
[18] = dose: 400.0 mg/kg/injection, schedule: Q01DX001 (ip), vehicle: saline with Tween-80
[19] = dose: 12.5 mg/kg/injection, schedule: Q01DX009 (ip), vehicle: saline with Tween-80
[20] = dose: 50.0 mg/kg/injection, schedule: Q01DX009 (ip), vehicle: saline with Tween-80
[21] = dose: 100.0 mg/kg/injection, schedule: Q01DX001 (ip), vehicle: Klucel (hydroxypropylcellulose) (HPC)
[22] = dose: 200.0 mg/kg/injection, schedule: Q01DX001 (ip), vehicle: Klucel (hydroxypropylcellulose) (HPC)
[23] = dose: 400.0 mg/kg/injection, schedule: Q01DX001 (ip), vehicle: Klucel (hydroxypropylcellulose) (HPC)

Measured: T/C

CC1(C)CC(OP(=O)(c2ccccc2)c2ccccc2)CC(C)(C)N1O
inactive: dose: 100.0 mg/kg/injection, schedule: Q04DX003 (ip), vehicle: water 106 % of control | dose: 200.0 mg/kg/injection, schedule: Q04DX003 (ip), vehicle: water 91 % of control | dose: 400.0 mg/kg/injection, schedule: Q04DX003 (ip), vehicle: water 102 % of control

O=[N+]([O-])c1cccc(/C=C/C=C/c2cccc(S(=O)(=O)F)c2)c1
inactive: [1] 100 % of control | [2] 93 % of control | [3] 93 % of control | [4] 96 % of control | [5] 95 % of control | [6] 90 % of control

CCCCNC(C)(C)C(SSSC(c1cccs1)C(C)(C)NCCCC)c1cccs1 (configuration not stated)
inactive: dose: 100.0 mg/kg/injection, schedule: Q01DX009 (ip), vehicle: saline sonified 100 % of control | dose: 200.0 mg/kg/injection, schedule: Q01DX009 (ip), vehicle: saline sonified 103 % of control

Cc1ccc([N+](=O)[O-])cc1NC(=O)Nc1c(C)n(C)n(-c2ccccc2)c1=O
inactive: dose: 50.0 mg/kg/injection, schedule: Q01DX009 (ip), vehicle: Klucel (hydroxypropylcellulose) (HPC) 93 % of control | [7] 89 % of control | [8] 93 % of control

c1ccc(CN2CCc3cc4c(cc3C2)OCO4)cc1
inactive: dose: 37.5 mg/kg/injection, schedule: Q01DX001 (ip), vehicle: saline 102 % of control | [9] 102 % of control | [10] 90 % of control

O=C(Oc1cccc(O)c1)c1ccccc1
inactive: [1] 104 % of control | [2] 89 % of control | [3] 100 % of control | [4] 92 % of control | [5] 96 % of control | [6] 101 % of control

COC(=O)c1c(C)c(-c2ccccc2)c(-c2ccccc2)c(C)c1C(=O)OC
inactive: dose: 100.0 mg/kg/injection, schedule: Q04DX002 (ip), vehicle: saline with Tween-80 98 % of control | [11] 95 % of control | [12] 95 % of control

COc1ccc(-c2cc(=O)c3ccc(O)cc3o2)cc1
inactive: [9] 104 % of control | [10] 90 % of control | dose: 300.0 mg/kg/injection, schedule: Q01DX001 (ip), vehicle: saline 104 % of control

O=C(O)/C=C/c1ccco1
inactive: [1] 95 % of control | [2] 101 % of control | [3] 94 % of control | [4] 98 % of control | [5] 96 % of control | [6] 108 % of control

Brc1ccccc1-c1ccccc1-c1ccccc1
inactive: [1] 106 % of control | [3] 101 % of control | [5] 101 % of control

OC1CCCCC12CC2 (configuration not stated)
inactive: [2] 102 % of control | [4] 104 % of control | [6] 113 % of control

Nc1cccc(=O)[nH]1
inactive: dose: 12.5 mg/kg/injection, schedule: Q01DX009 (ip), vehicle: suspension in saline 96 % of control | dose: 25.0 mg/kg/injection, schedule: Q01DX009 (ip), vehicle: suspension in saline 96 % of control and 104 % of control | dose: 50.0 mg/kg/injection, schedule: Q01DX009 (ip), vehicle: suspension in saline 95 % of control and 96 % of control | dose: 100.0 mg/kg/injection, schedule: Q01DX009 (ip), vehicle: suspension in saline 90 % of control and 96 % of control | dose: 200.0 mg/kg/injection, schedule: Q01DX009 (ip), vehicle: suspension in saline 102 % of control and 107 % of control | dose: 400.0 mg/kg/injection, schedule: Q01DX009 (ip), vehicle: suspension in saline 104 % of control

CC1(C)CCC2(C)CCC3(C)C(=CCC4C5(C)CCC(O)C(C)(C)C5CCC43C)C2C1 (configuration not stated)
inactive: [2] 98 % of control | [4] 90 % of control | [6] 91 % of control

O=C(N/N=C(/C(=N/NC(=O)c1ccccc1)c1ccccc1)c1ccccc1)c1ccccc1
inactive: [4] 91 % of control | [6] 87 % of control

CC(=O)C1CCC2C3CC=C4CC(n5c(=O)cc[nH]c5=O)CCC4(C)C3CCC12C (configuration not stated)
inactive: dose: 12.5 mg/kg/injection, schedule: Q04DX003 (ip), vehicle: Klucel (hydroxypropylcellulose) (HPC) 97 % of control | dose: 25.0 mg/kg/injection, schedule: Q04DX003 (ip), vehicle: Klucel (hydroxypropylcellulose) (HPC) 98 % of control | dose: 50.0 mg/kg/injection, schedule: Q04DX003 (ip), vehicle: Klucel (hydroxypropylcellulose) (HPC) 101 % of control and 103 % of control | [13] 92 % of control and 101 % of control | [14] 95 % of control | [15] 90 % of control

CCc1ncc(CO)n1Cc1ccccc1
inactive: [1] 100 % of control

CCOC(=O)CNc1nc(Cl)nc(NCC(=O)OCC)n1
inactive: [16] 87 % of control | [17] 89 % of control | [18] 91 % of control

O=C1OC2(c3cc(I)c(O)c(I)c3Oc3c2cc(I)c(O)c3I)c2c(Cl)ccc(Cl)c21
inactive: [16] 103 % of control | [17] 87 % of control | [18] 100 % of control

CC(=O)OC1C(C)OC(n2ncc(=O)[nH]c2=O)C(OC(C)=O)C1OC(C)=O (configuration not stated)
inactive: dose: 12.5 mg/kg/injection, schedule: Q01DX005 (ip), vehicle: distilled water + Tween-80 103 % of control | dose: 25.0 mg/kg/injection, schedule: Q01DX005 (ip), vehicle: distilled water + Tween-80 100 % of control | dose: 50.0 mg/kg/injection, schedule: Q01DX005 (ip), vehicle: distilled water + Tween-80 103 % of control | dose: 100.0 mg/kg/injection, schedule: Q01DX005 (ip), vehicle: distilled water + Tween-80 103 % of control | dose: 200.0 mg/kg/injection, schedule: Q01DX005 (ip), vehicle: distilled water + Tween-80 107 % of control

Br/C(C=Nc1ccccc1)=C\Nc1ccccc1
inactive: [1] 102 % of control | [2] 101 % of control | [3] 86 % of control | [4] 108 % of control | [5] 86 % of control | [6] 108 % of control

CC(=O)c1c(C)c2c(C)cc3oc(=O)c(C(C)=O)c(C)c3c2oc1=O
inactive: [11] 92 % of control | [12] 87 % of control

O=[N+]([O-])c1ccc(O)c(Cl)c1
inactive: [19] 86 % of control | dose: 25.0 mg/kg/injection, schedule: Q01DX009 (ip), vehicle: saline with Tween-80 89 % of control | [20] 106 % of control and 108 % of control

O=C(N/N=C\c1ccc(Cl)cc1)c1ccccc1
inactive: [20] 94 % of control | [1] 101 % of control | [3] 95 % of control

CC(C)(C)CC1(C)NC(=O)NC1=O (configuration not stated)
inactive: dose: 100.0 mg/kg/injection, schedule: Q01DX001 (ip), vehicle: saline 100 % of control | dose: 200.0 mg/kg/injection, schedule: Q01DX001 (ip), vehicle: saline 97 % of control | dose: 400.0 mg/kg/injection, schedule: Q01DX001 (ip), vehicle: saline 100 % of control

CCOC(=O)C1(C(=O)OCC)C(C)CC(O)N1C(=O)c1cc2c(cc1[N+](=O)[O-])OCO2 (configuration not stated)
inactive: [21] 100 % of control | [22] 100 % of control | [23] 104 % of control

Cc1cc(Cl)ccc1N=Cc1ccc2c(c1)OCO2
inactive: [21] 95 % of control | [7] 108 % of control | [22] 102 % of control | [8] 105 % of control | [23] 95 % of control | dose: 400.0 mg/kg/injection, schedule: Q01DX009 (ip), vehicle: Klucel (hydroxypropylcellulose) (HPC) 98 % of control

O=C(O)c1cnc(Cl)c(Br)c1
inactive: [16] 103 % of control | [2] 97 % of control | [17] 93 % of control | [4] 93 % of control | [18] 98 % of control | [6] 93 % of control

CCOC(=O)C(=O)NCCc1ccc2c(c1)OCO2
inactive: [16] 97 % of control | [17] 95 % of control | [18] 100 % of control

C[N+](C)(C)Cc1ccccc1
inactive: dose: 3.13 mg/kg/injection, schedule: Q01DX009 (ip), vehicle: saline with Tween-80 97 % of control | dose: 6.25 mg/kg/injection, schedule: Q01DX009 (ip), vehicle: saline with Tween-80 97 % of control | [19] 95 % of control | dose: 12.5 mg/kg/injection, schedule: Q04DX003 (ip), vehicle: saline 104 % of control

COC(=O)c1ccc(OCCOc2ccc(C(C)(C)CC(C)(C)C)cc2)c(N)c1
inactive: [13] 94 % of control | [14] 100 % of control | [15] 101 % of control
